According to paper PMC6930638, “The Masked Polar Group Incorporation (MPGI) Strategy in Drug Design: Effects of Nitrogen Substitutions on Combretastatin and Isocombretastatin Tubulin Inhibitors” (Molecules, 2019):
Values after ≈ are worked out from the molar mass of the structure shown.

Legend:
[1] = tested on: rat primary pancreatic cells; assay: Toxicity against rat primary pancreatic cells (MTT); details: for live cells with respect to the non-treated control (means ± S.E.M.): rat, 7 h, pH 7.4
Protocol: The toxicity of the compounds against rat primary pancreatic cells was evaluated by the MTT protocol (Table 2). […] Sodium taurocholate (NaTc) was also used at high concentrations as a model of acute pancreatitis in vitro.
Rat primary pancreatic cells were isolated as previously described. Afterwards, pancreatic cells were resuspended in Na-HEPES solution (pH 7.4) containing 14 mM glucose, 1% essential amino acid mixture, 1% (w/v) BSA, 0.01% (w/v) STI, 0.5 mM CaCl2 and incubated (5% CO2, at 37 °C) for 7 h in the absence (non-treated control) or the presence of compounds at different concentrations. After the treatment, cells were incubated (5% CO2, at 37 °C) with 0.5 mg/mL MTT for 2 h and the formazan crystals were solubilized with DMSO (v/v). The optical density was read at 570 nm with a reference wavelength of 630 nm. Non-treated cell viability was set as 100%.

[2] = tested on: HT-29 colon adenocarcinoma; assay: MTT cell antiproliferative assay, HT-29 (without or with verapamil); type: cell-based, human; details: Homo sapiens, HT-29; MTT, 72 h
[3] = Aqueous solubility determination (shake flask, UV); type: physicochemical; details: phosphate buffer, pH 7, aqueous buffer, thermodynamic from solid, phosphate buffer pH 7.0, 48 h stirring, filtered, UV; read-out: Solub.
Protocol: One of the expected effects of introducing nitrogen substitutions on combretastatin and isocombretastatin analogues, is an increase in aqueous solubility. Solubility was spectrophotometrically determined in phosphate buffer at pH 7. UV absorbance of soluble compounds was measured after shaking and microfiltration. […] In addition, aqueous solubilities of the corresponding ammonium salts are over 1 mg/mL.
This great improvement is probably due to the symmetry reduction, combined with an increased polarity for 2g.
Compounds were stirred in a solution of phosphate buffer at pH 7.0 (1–2 mg of compound in 300 µL of buffer) during 48 h. After that, the samples were filtered over a […] filter to discard the insoluble residues. In order to determine the maximum wavelength of absorbance for each compound, a scan between 270 and 400 nm was performed. Once the wavelength was selected, a calibration line was performed and the concentration of the stirred and filtered samples was measured.

[4] = tested on: MCF-7 breast adenocarcinoma; assay: MTT cell antiproliferative assay, MCF-7; type: cell-based; details: Homo sapiens, MCF7, 72 h
[5] = tested on: Bovine brain microtubule protein (MTP); assay: Tubulin polymerization inhibition assay (turbidimetry); type: biochemical; details: 1.5 mg/mL MTP; IC50 calculated only if more than 50% inhibition at 20 µM; read-out: TPI IC50

IC50 [2]	solubility at 48 h [3]	IC50 [4]	IC50 [5]	SMILES	toxicity against primary pancreatic cultured cells [1]	live cells with respect to the non-treated control (means ± S.E.M.) ([1]; 0.25 µM)	live cells with respect to the non-treated control (means ± S.E.M.) ([1]; 0.5 µM)
460 nM	11 µg/mL (≈ 34.9 µM)	320 nM	> 20000 nM	COc1cc(C(=O)c2cccc(N(C)C)c2)cc(OC)c1OC [Compound 1f, (3-(Dimethylamino)phenyl)(3,4,5-trimethoxyphenyl)methanone]	very low toxicity	106.59 ± 17.60%	95.97 ± 10.55%
71 nM	20 µg/mL (≈ 58.4 µM)	17 nM	9100 nM	COc1cc(C(=O)c2ccnc(N3CCCC3)c2)cc(OC)c1OC [Compound 1h, (2-(Pyrrolidin-1-yl)pyridin-4-yl)(3,4,5-trimethoxyphenyl)methanone]	very low toxicity	103.84 ± 9.20%	102.59 ± 14.73%
277 nM	13.5 µg/mL (≈ 42.9 µM)	81 nM	35900 nM	C=C(c1ccc(N(C)C)nc1)c1cc(OC)c(OC)c(OC)c1 [Compound 3b, N,N-Dimethyl-5-(1-(3,4,5-trimethoxyphenyl)vinyl)pyridin-2-amine]	very low toxicity	112.81 ± 19.30%	94.06 ± 13.13%
78 nM	44 µg/mL (≈ 140 µM)	63 nM	5100 nM	COc1cc(C=Cc2ccc(N(C)C)nc2)cc(OC)c1OC [Compound 8b, N,N-dimethyl-5-(3,4,5-trimethoxystyryl)pyridin-2-amine]	very low toxicity	94.31 ± 11.83%	91.65 ± 13.88%
